In US10499642B2, “Isoxazoline-substituted benzamides and analogues as insecticides” (SYNGENTA PARTICIPATIONS AG, priority 2015, dated 2019):

Experiments:
Format in all cases: in vivo
Myzus persicae = Myzus persicae (green peach aphid) sunflower leaf disc test; settings: foliar, 144 h
Protocol: Myzus persicae (Green Peach Aphid):
Sunflower leaf discs were placed on agar in a 24-well microtiter plate and sprayed with test solutions at an application rate of 200 ppm. After drying, the leaf discs were infested with an aphid population of mixed ages. After an incubation period of 6 days after treatment, samples were checked for mortality. The following compounds gave at least 80% mortality of Myzus persicae: […]

Thrips tabaci = Thrips tabaci (onion thrips) sunflower leaf disc test; settings: foliar, 144 h
Protocol: Thrips tabaci (Onion Thrips):
(§1) Sunflower leaf discs were placed on agar in 24-well microtiter plates and sprayed with aqueous test solutions prepared from 10′000 ppm DMSO stock solutions. After drying the leaf discs were infested with a thrips population of mixed ages. The samples were assessed for mortality 6 days after infestation.

Plutella xylostella = Plutella xylostella (diamond back moth) artificial diet test; settings: 120 h, read-out: effect in at least one of the two categories (mortality or growth inhibition)
Procedure, shortened: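 Artificial diet treated with aqueous compound solutions made from DMSO stocks, dried, then infested with L2 larvae (10 to 15 per well). Mortality and growth inhibition scored versus untreated controls 5 days after infestation. Application rate 200 ppm.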

Spodoptera littoralis = Spodoptera littoralis (Egyptian cotton leaf worm) cotton leaf disc test; settings: foliar, 72 h, read-out: control (at least one of mortality, anti-feedant effect, and growth inhibition)
Procedure, shortened: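 Cotton leaf discs on agar were sprayed with aqueous dilutions of 10′000 ppm DMSO stocks, dried and infested with five L1 larvae. Mortality, anti-feedant effect and growth inhibition were scored against untreated samples 3 days after infestation. Control = any of these higher than untreated.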

Diabrotica Balteata = assay: Diabrotica balteata (corn root worm) maize sprout test; settings: 96 h, read-out: effect in at least one of the two categories (mortality or growth inhibition)
Procedure, shortened: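 Maize sprouts on agar were sprayed with aqueous test solutions made from 10′000 ppm DMSO stocks, dried, then infested with 6 to 10 L2 larvae per well. Mortality and growth inhibition versus untreated samples were assessed 4 days after infestation; application rate 200 ppm.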

Tetranychus urticae = Tetranychus urticae (two-spotted spider mite) bean leaf disc test; settings: foliar, 192 h
Protocol: Tetranychus urticae (Two-Spotted Spider Mite):
as §1, with “Bean” for “Sunflower”, “discs” for “discs were placed”, “were” for “and”, “mite” for “thrips”, “on mixed population (mobile stages) 8” for “6”

Cc1cc(C2=NO[C@@](c3cc(Cl)c(Cl)c(Cl)c3)(C(F)(F)F)C2)ccc1C(=O)NC1CC(OCC(F)F)=NO1 (stereo partly drawn) [Compound A127, N-[3-(2,2-difluoroethoxy)-4,5-dihydroisoxazol-5-yl]-2-methyl-4-[(5S)-5-(3,4,5-trichlorophenyl)-5-(trifluoromethyl)-4H-isoxazol-3-yl]benzamide]
≥ 80%: mortality at 200 ppm (Myzus persicae) | mortality at 200 ppm (Thrips tabaci) | percent effect (mortality or growth inhibition) at 200 ppm (Plutella xylostella) | percent control (mortality, anti-feedant effect or growth inhibition) at 200 ppm (Spodoptera littoralis) | percent effect (mortality or growth inhibition) at 200 ppm (Diabrotica Balteata) | mortality at 200 ppm (Tetranychus urticae)

CC(=O)C1=NOC(NC(=O)c2ccc(C3=NO[C@@](c4cc(Cl)c(F)c(Cl)c4)(C(F)(F)F)C3)cc2C)C1 (stereo partly drawn) [Compound A015, N-(3-acetyl-4,5-dihydroisoxazol-5-yl)-4-[(5S)-5-(3,5-dichloro-4-fluoro-phenyl)-5-(trifluoromethyl)-4H-isoxazol-3-yl]-2-methyl-benzamide]
≥ 80%: mortality at 200 ppm (Myzus persicae) | mortality at 200 ppm (Thrips tabaci) | percent effect (mortality or growth inhibition) at 200 ppm (Plutella xylostella) | percent control (mortality, anti-feedant effect or growth inhibition) at 200 ppm (Spodoptera littoralis) | percent effect (mortality or growth inhibition) at 200 ppm (Diabrotica Balteata) | mortality at 200 ppm (Tetranychus urticae)

COC1=NOC(NC(=O)c2ccc(C3=NO[C@@](c4cc(Cl)cc(C(F)(F)F)c4)(C(F)(F)F)C3)cc2C)C1 (stereo partly drawn) [Compound A042]
≥ 80%: mortality at 200 ppm (Myzus persicae) | mortality at 200 ppm (Thrips tabaci) | percent effect (mortality or growth inhibition) at 200 ppm (Plutella xylostella) | percent control (mortality, anti-feedant effect or growth inhibition) at 200 ppm (Spodoptera littoralis) | percent effect (mortality or growth inhibition) at 200 ppm (Diabrotica Balteata) | mortality at 200 ppm (Tetranychus urticae)

Cc1cc(C2=NO[C@@](c3cc(Cl)cc(Cl)c3)(C(F)(F)F)C2)ccc1C(=O)N(C=O)C1CC(C(F)(F)F)=NO1 (stereo partly drawn) [Compound A138]
≥ 80%: mortality at 200 ppm (Myzus persicae) | mortality at 200 ppm (Thrips tabaci) | percent effect (mortality or growth inhibition) at 200 ppm (Plutella xylostella) | percent control (mortality, anti-feedant effect or growth inhibition) at 200 ppm (Spodoptera littoralis) | percent effect (mortality or growth inhibition) at 200 ppm (Diabrotica Balteata) | mortality at 200 ppm (Tetranychus urticae)

Cc1cc(C2=NO[C@@](c3cc(Cl)c(F)c(Cl)c3)(C(F)(F)F)C2)ccc1C(=O)NC1CC(OCC(C)C)=NO1 (stereo partly drawn) [Compound A073]
≥ 80%: mortality at 200 ppm (Myzus persicae) | mortality at 200 ppm (Thrips tabaci) | percent effect (mortality or growth inhibition) at 200 ppm (Plutella xylostella) | percent control (mortality, anti-feedant effect or growth inhibition) at 200 ppm (Spodoptera littoralis) | percent effect (mortality or growth inhibition) at 200 ppm (Diabrotica Balteata) | mortality at 200 ppm (Tetranychus urticae)

COC1=NOC(NC(=O)c2ccc(C3=NO[C@@](c4cc(Cl)cc(Cl)c4)(C(F)(F)F)C3)cc2C)C1 (stereo partly drawn) [Compound A054]
≥ 80%: mortality at 200 ppm (Myzus persicae) | mortality at 200 ppm (Thrips tabaci) | percent effect (mortality or growth inhibition) at 200 ppm (Plutella xylostella) | percent control (mortality, anti-feedant effect or growth inhibition) at 200 ppm (Spodoptera littoralis) | percent effect (mortality or growth inhibition) at 200 ppm (Diabrotica Balteata) | mortality at 200 ppm (Tetranychus urticae)

Cc1cc(C2=NO[C@@](c3cc(Cl)c(F)c(Cl)c3)(C(F)(F)F)C2)ccc1C(=O)NC1CC(OC2COC2)=NO1 (stereo partly drawn) [Compound A082]
≥ 80%: mortality at 200 ppm (Myzus persicae) | mortality at 200 ppm (Thrips tabaci) | percent effect (mortality or growth inhibition) at 200 ppm (Plutella xylostella) | percent control (mortality, anti-feedant effect or growth inhibition) at 200 ppm (Spodoptera littoralis) | percent effect (mortality or growth inhibition) at 200 ppm (Diabrotica Balteata) | mortality at 200 ppm (Tetranychus urticae)

COC1=NO[C@H](NC(=O)c2ccc(C3=NO[C@@](c4cc(Cl)c(F)c(Cl)c4)(C(F)(F)F)C3)cc2C)C1 (single isomer, unassigned) [Compound A150]
≥ 80%: mortality at 200 ppm (Myzus persicae) | mortality at 200 ppm (Thrips tabaci) | percent effect (mortality or growth inhibition) at 200 ppm (Plutella xylostella) | percent control (mortality, anti-feedant effect or growth inhibition) at 200 ppm (Spodoptera littoralis) | percent effect (mortality or growth inhibition) at 200 ppm (Diabrotica Balteata) | mortality at 200 ppm (Tetranychus urticae)

Cc1cc(C2=NO[C@@](c3cc(Cl)c(Cl)c(Cl)c3)(C(F)(F)F)C2)ccc1C(=O)NC1CC(OCC2CCC2)=NO1 (stereo partly drawn) [Compound A111, N-[3-(cyclobutylmethoxy)-4,5-dihydroisoxazol-5-yl]-2-methyl-4-[(5S)-5-(3,4,5-trichlorophenyl)-5-(trifluoromethyl)-4H-isoxazol-3-yl]benzamide]
≥ 80%: mortality at 200 ppm (Myzus persicae) | mortality at 200 ppm (Thrips tabaci) | percent effect (mortality or growth inhibition) at 200 ppm (Plutella xylostella) | percent control (mortality, anti-feedant effect or growth inhibition) at 200 ppm (Spodoptera littoralis) | percent effect (mortality or growth inhibition) at 200 ppm (Diabrotica Balteata) | mortality at 200 ppm (Tetranychus urticae)

CC1=NOC(N(C=O)C(=O)c2ccc(C3=NO[C@@](c4cc(Cl)cc(Cl)c4)(C(F)(F)F)C3)cc2C)C1 (stereo partly drawn) [Compound A140]
≥ 80%: mortality at 200 ppm (Myzus persicae) | mortality at 200 ppm (Thrips tabaci) | percent effect (mortality or growth inhibition) at 200 ppm (Plutella xylostella) | percent control (mortality, anti-feedant effect or growth inhibition) at 200 ppm (Spodoptera littoralis) | percent effect (mortality or growth inhibition) at 200 ppm (Diabrotica Balteata) | mortality at 200 ppm (Tetranychus urticae)

Cc1cc(C2=NO[C@@](c3cc(Cl)c(F)c(Cl)c3)(C(F)(F)F)C2)ccc1C(=O)N(C=O)C1CC(Cl)=NO1 (stereo partly drawn) [Compound A011, N-(3-chloro-4,5-dihydroisoxazol-5-yl)-4-[(5S)-5-(3,5-dichloro-4-fluoro-phenyl)-5-(trifluoromethyl)-4H-isoxazol-3-yl]-N-formyl-2-methyl-benzamide]
≥ 80%: mortality at 200 ppm (Myzus persicae) | mortality at 200 ppm (Thrips tabaci) | percent effect (mortality or growth inhibition) at 200 ppm (Plutella xylostella) | percent control (mortality, anti-feedant effect or growth inhibition) at 200 ppm (Spodoptera littoralis) | percent effect (mortality or growth inhibition) at 200 ppm (Diabrotica Balteata) | mortality at 200 ppm (Tetranychus urticae)

CC1=NOC(NC(=O)c2ccc(C3=NO[C@@](c4cc(Cl)cc(C(F)(F)F)c4)(C(F)(F)F)C3)cc2C)C1 (stereo partly drawn) [Compound A028, 4-[(5S)-5-[3-chloro-5-(trifluoromethyl)phenyl]-5-(trifluoromethyl)-4H-isoxazol-3-yl]-2-methyl-N-(3-methyl-4,5-dihydroisoxazol-5-yl)benzamide]
≥ 80%: mortality at 200 ppm (Myzus persicae) | mortality at 200 ppm (Thrips tabaci) | percent effect (mortality or growth inhibition) at 200 ppm (Plutella xylostella) | percent control (mortality, anti-feedant effect or growth inhibition) at 200 ppm (Spodoptera littoralis) | percent effect (mortality or growth inhibition) at 200 ppm (Diabrotica Balteata) | mortality at 200 ppm (Tetranychus urticae)

CC(C)=CCOC1=NOC(NC(=O)c2ccc(C3=NO[C@@](c4cc(Cl)c(F)c(Cl)c4)(C(F)(F)F)C3)cc2C)C1 (stereo partly drawn) [Compound A085]
≥ 80%: mortality at 200 ppm (Myzus persicae) | mortality at 200 ppm (Thrips tabaci) | percent effect (mortality or growth inhibition) at 200 ppm (Plutella xylostella) | percent control (mortality, anti-feedant effect or growth inhibition) at 200 ppm (Spodoptera littoralis) | percent effect (mortality or growth inhibition) at 200 ppm (Diabrotica Balteata) | mortality at 200 ppm (Tetranychus urticae)

C=CCOC1=NOC(NC(=O)c2ccc(C3=NO[C@@](c4cc(Cl)c(F)c(Cl)c4)(C(F)(F)F)C3)cc2C)C1 (stereo partly drawn) [Compound A072]
≥ 80%: mortality at 200 ppm (Myzus persicae) | mortality at 200 ppm (Thrips tabaci) | percent effect (mortality or growth inhibition) at 200 ppm (Plutella xylostella) | percent control (mortality, anti-feedant effect or growth inhibition) at 200 ppm (Spodoptera littoralis) | percent effect (mortality or growth inhibition) at 200 ppm (Diabrotica Balteata) | mortality at 200 ppm (Tetranychus urticae)

COCCOC1=NOC(NC(=O)c2ccc(C3=NO[C@@](c4cc(Cl)c(F)c(Cl)c4)(C(F)(F)F)C3)cc2C)C1 (stereo partly drawn) [Compound A076]
≥ 80%: mortality at 200 ppm (Myzus persicae) | mortality at 200 ppm (Thrips tabaci) | percent effect (mortality or growth inhibition) at 200 ppm (Plutella xylostella) | percent control (mortality, anti-feedant effect or growth inhibition) at 200 ppm (Spodoptera littoralis) | percent effect (mortality or growth inhibition) at 200 ppm (Diabrotica Balteata) | mortality at 200 ppm (Tetranychus urticae)

Cc1cc(C2=NO[C@@](c3cc(Cl)c(Cl)c(Cl)c3)(C(F)(F)F)C2)ccc1C(=O)N(C=O)C1CC(Cl)=NO1 (stereo partly drawn) [Compound A010, N-(3-chloro-4,5-dihydroisoxazol-5-yl)-N-formyl-2-methyl-4-[(5S)-5-(3,4,5-trichlorophenyl)-5-(trifluoromethyl)-4H-isoxazol-3-yl]benzamide]
≥ 80%: mortality at 200 ppm (Myzus persicae) | mortality at 200 ppm (Thrips tabaci) | percent effect (mortality or growth inhibition) at 200 ppm (Plutella xylostella) | percent control (mortality, anti-feedant effect or growth inhibition) at 200 ppm (Spodoptera littoralis) | percent effect (mortality or growth inhibition) at 200 ppm (Diabrotica Balteata) | mortality at 200 ppm (Tetranychus urticae)

Cc1cc(C2=NO[C@@](c3cc(Cl)c(F)c(Cl)c3)(C(F)(F)F)C2)ccc1C(=O)NC1CC(C(F)(F)F)=NO1 (stereo partly drawn) [Compound A005, 4-[(5S)-5-(3,5-dichloro-4-fluoro-phenyl)-5-(trifluoromethyl)-4H-isoxazol-3-yl]-2-methyl-N-[3-(trifluoromethyl)-4,5-dihydroisoxazol-5-yl]benzamide]
≥ 80%: mortality at 200 ppm (Myzus persicae) | mortality at 200 ppm (Thrips tabaci) | percent effect (mortality or growth inhibition) at 200 ppm (Plutella xylostella) | percent control (mortality, anti-feedant effect or growth inhibition) at 200 ppm (Spodoptera littoralis) | percent effect (mortality or growth inhibition) at 200 ppm (Diabrotica Balteata) | mortality at 200 ppm (Tetranychus urticae)

COCC1=NOC(NC(=O)c2ccc(C3=NO[C@@](c4cc(Cl)c(F)c(Cl)c4)(C(F)(F)F)C3)cc2C)C1 (stereo partly drawn) [Compound A090]
≥ 80%: mortality at 200 ppm (Myzus persicae) | mortality at 200 ppm (Thrips tabaci) | percent effect (mortality or growth inhibition) at 200 ppm (Plutella xylostella) | percent control (mortality, anti-feedant effect or growth inhibition) at 200 ppm (Spodoptera littoralis) | percent effect (mortality or growth inhibition) at 200 ppm (Diabrotica Balteata) | mortality at 200 ppm (Tetranychus urticae)

COC1=NOC(NC(=O)c2ccc(C3=NOC(c4cc(Cl)cc(Cl)c4)(C(F)(F)F)C3)cc2C)C1 (stereo not drawn) [Compound A126]
≥ 80%: mortality at 200 ppm (Myzus persicae) | mortality at 200 ppm (Thrips tabaci) | percent effect (mortality or growth inhibition) at 200 ppm (Plutella xylostella) | percent control (mortality, anti-feedant effect or growth inhibition) at 200 ppm (Spodoptera littoralis) | percent effect (mortality or growth inhibition) at 200 ppm (Diabrotica Balteata) | mortality at 200 ppm (Tetranychus urticae)
